The record followed here is US9221795B2, “Phosphatidylinositol 3-kinase inhibitors” (Gilead Sciences, Inc., priority 2013, dated 2015).

Data set [1] deals with PI3Kδ (Homo sapiens (Human), UniProt O00329). Briefly: Enzymatic activity of PI3K isoforms, TR-FRET assay (PI3Kδ). The format is biochemical. The settings on record: 2× Km ATP, geometric mean if more than one value. In outline:
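Recombinant heterodimeric PI3Kβ or PI3Kδ (25-50 pM) was run with 2 μM PIP2 and 2× Km ATP (75-500 μM) at pH 7.4, for 30 min at 25° C. PIP3 formation was detected by TR-FRET displacement of labeled PIP3 from Eu-GRP-1. IC50 values in nM come from four-parameter fits, as geometric means.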
Background: In TR-FRET formats the signal depends on donor and acceptor labels being close together.

For data set [2], the system named is basophils. Briefly: Basophil activation in human whole blood (Flow2 CAST kit, CD63 flow cytometry). The data set is classed as cell-based. The settings on record: Homo sapiens, human whole blood, basophils activated with anti-FcεRI mAb or fMLP, percent CD63 positive cells.
The test system of data set [3] is cryopreserved human hepatocytes. Briefly: Hepatocyte stability (parent drug disappearance in cryopreserved hepatocytes). The data set is classed as in vitro ADME. The following applies: human hepatocytes, 2 μM substrate, 37° C. The protocol:
(§1) This assay was used to evaluate the metabolic stability of test articles (TA) following incubation in cryopreserved hepatocytes by monitoring parent drug disappearance via LC/MC. The TA was incubated with 1 million hepatocytes/mL at 2 μM substrate in duplicate. The incubation was carried out at 37° C. with 5% CO2 and saturating humidity. Samples were taken at 0, 1, 2, and 4 hours to monitor the disappearance of TA and a half-life (t1/2) was determined. Table 3 below summarizes the human hepatocyte t1/2 values (hours) collected in the Example.

Data set [4] concerns the target PI3Kβ (Homo sapiens (Human), UniProt P42338). Briefly: Enzymatic activity of PI3K isoforms, TR-FRET assay (PI3Kβ). The data set is classed as biochemical. The settings on record: 2× Km ATP, geometric mean if more than one value. The protocol: Enzymatic activity of the class I PI3K isoforms in the presence of the compounds of Table 1 and Compounds X, Y and Z was measured using a time-resolved fluorescence resonance energy transfer (TR-FRET) assay. The TR-FRET assay was used to monitor formation of the product 3,4,5-inositol triphosphate molecule (PIP3) as it competed with fluorescently labeled PIP3 for binding to the GRP-1 pleckstrin homology domain protein. An increase in […] product results in a decrease in TR-FRET signal as the labeled fluorophore is displaced from the GRP-1 protein binding site.
Class I PI3K isoforms were expressed and purified as heterodimeric recombinant proteins. All assay reagents and buffers for the TR-FRET assay were purchased from Millipore. PI3K isoforms were assayed under initial rate conditions in the presence of 25 mM Hepes (pH 7.4), and 2× Km ATP (75-500 μM), 2 μM PIP2, 5% glycerol, 5 mM MgCl2, 50 mM NaCl, 0.05% (v/v) Chaps, 1 mM dithiothreitol, 1% (v/v) DMSO at the following concentrations for each isoforms: PI3Kα, PI3Kβ, and PI3Kδ between 25 and 50 pM, and PI3Kγ at 2 nM. After an assay reaction time of 30 minutes at 25° C., reactions were terminated with a final concentration of 10 mM EDTA, 10 nM labeled-PIP3, and 35 nM Europium labeled GRP-1 detector protein before reading TR-FRET on an Envision plate reader (Ex: 340 nm; Em: 615/665 nm; […] delay and 500 μs read window).
Data were normalized based on positive ([…] wortmanin) and negative (DMSO) controls. α, β, δ, and γ IC50 values were calculated from the fit of the dose-response curves to a four-parameter equation. All IC50 values represent geometric mean values if more than one value was obtained. IC50 values were reported in units of nM.

Data set [5] in a line: Hepatocyte stability (parent drug disappearance in cryopreserved hepatocytes). The data set is classed as in vitro ADME, human. The following applies: human, cryopreserved human hepatocytes, 2 μM substrate, 37° C.; Table 2a. The protocol: as §1

Broadly, the IC50 is the concentration that gives 50% inhibition. One may read the EC50 as the concentration needed to bring the measured effect to its halfway point. Usually half-life stands for how long it takes for the measured level to halve.

Chain of PI3Kβ (P42338 whole entry, the tested form may be a part, canonical isoform): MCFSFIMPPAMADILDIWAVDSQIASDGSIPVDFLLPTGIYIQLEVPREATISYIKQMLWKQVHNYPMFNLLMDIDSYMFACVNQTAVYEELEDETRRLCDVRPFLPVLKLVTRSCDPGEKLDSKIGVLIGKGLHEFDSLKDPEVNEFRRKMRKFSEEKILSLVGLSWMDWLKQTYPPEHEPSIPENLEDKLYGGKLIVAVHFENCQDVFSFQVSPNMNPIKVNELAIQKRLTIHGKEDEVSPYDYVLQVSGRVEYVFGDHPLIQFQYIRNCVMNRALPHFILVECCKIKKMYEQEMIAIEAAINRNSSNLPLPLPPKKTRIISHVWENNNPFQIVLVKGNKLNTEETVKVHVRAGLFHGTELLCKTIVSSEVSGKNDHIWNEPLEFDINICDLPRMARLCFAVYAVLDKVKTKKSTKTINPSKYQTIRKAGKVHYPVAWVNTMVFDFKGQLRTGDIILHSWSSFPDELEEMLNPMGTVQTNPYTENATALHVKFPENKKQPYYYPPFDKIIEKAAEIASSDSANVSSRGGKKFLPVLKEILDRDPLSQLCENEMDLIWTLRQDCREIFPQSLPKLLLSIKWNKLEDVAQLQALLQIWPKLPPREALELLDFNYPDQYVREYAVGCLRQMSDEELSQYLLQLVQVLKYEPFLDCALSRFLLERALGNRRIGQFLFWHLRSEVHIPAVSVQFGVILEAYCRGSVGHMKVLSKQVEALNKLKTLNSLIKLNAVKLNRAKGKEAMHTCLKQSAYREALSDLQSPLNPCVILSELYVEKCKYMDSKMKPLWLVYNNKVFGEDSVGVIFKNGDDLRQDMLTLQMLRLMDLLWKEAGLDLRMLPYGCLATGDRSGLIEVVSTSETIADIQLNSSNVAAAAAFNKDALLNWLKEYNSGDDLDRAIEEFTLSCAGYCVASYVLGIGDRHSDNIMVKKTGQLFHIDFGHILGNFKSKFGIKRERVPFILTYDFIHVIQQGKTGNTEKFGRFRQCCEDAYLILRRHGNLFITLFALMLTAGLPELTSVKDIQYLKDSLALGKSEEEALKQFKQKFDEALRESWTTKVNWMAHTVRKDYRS
Chain of PI3Kβ (P27986 whole entry partner, the tested form may be a part, canonical isoform): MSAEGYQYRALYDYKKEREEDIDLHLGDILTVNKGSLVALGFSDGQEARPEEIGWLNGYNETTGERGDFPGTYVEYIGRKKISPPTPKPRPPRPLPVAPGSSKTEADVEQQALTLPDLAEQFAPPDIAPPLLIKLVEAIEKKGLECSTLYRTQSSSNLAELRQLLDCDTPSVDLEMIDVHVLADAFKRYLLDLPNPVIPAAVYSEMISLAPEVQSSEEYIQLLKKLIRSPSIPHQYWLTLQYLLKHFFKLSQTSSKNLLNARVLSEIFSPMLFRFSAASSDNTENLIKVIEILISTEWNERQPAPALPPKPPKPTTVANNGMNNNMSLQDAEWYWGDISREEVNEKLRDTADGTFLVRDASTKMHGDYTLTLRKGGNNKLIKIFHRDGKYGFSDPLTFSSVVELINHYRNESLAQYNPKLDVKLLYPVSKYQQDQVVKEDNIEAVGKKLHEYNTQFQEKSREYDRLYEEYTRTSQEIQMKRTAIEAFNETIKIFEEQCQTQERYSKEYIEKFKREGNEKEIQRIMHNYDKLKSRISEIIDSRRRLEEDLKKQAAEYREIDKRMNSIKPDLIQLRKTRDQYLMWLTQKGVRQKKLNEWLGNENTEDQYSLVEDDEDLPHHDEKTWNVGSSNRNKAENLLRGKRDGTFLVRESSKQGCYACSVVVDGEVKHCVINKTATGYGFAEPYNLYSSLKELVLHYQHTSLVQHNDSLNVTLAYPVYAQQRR
Chain of PI3Kδ (O00329 whole entry, canonical isoform): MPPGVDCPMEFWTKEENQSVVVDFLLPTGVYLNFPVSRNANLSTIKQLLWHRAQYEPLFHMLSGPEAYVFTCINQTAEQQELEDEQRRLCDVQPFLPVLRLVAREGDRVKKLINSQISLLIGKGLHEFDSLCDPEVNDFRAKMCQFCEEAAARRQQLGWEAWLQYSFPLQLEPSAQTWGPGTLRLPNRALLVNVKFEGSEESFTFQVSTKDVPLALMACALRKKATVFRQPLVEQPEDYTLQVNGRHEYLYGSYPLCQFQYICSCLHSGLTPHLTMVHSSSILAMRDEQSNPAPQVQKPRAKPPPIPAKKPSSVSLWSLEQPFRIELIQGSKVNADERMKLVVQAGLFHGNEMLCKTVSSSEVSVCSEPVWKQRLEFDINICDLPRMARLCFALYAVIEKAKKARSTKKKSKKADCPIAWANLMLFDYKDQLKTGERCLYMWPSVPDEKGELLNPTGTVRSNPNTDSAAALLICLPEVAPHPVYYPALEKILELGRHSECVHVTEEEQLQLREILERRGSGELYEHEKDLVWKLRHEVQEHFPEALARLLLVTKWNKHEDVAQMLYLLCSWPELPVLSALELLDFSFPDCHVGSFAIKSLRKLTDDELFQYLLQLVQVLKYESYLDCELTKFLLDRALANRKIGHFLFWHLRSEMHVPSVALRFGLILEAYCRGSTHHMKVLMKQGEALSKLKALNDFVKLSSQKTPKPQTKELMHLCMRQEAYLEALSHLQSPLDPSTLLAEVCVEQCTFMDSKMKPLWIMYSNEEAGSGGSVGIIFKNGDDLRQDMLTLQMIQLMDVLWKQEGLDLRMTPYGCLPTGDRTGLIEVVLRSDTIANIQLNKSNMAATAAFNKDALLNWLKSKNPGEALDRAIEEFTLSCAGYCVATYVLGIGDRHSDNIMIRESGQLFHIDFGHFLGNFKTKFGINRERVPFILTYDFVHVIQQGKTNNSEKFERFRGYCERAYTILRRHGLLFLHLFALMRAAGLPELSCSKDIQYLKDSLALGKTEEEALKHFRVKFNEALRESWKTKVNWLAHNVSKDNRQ
Chain of PI3Kδ (P27986 whole entry partner, canonical isoform): as the sequence (P27986 whole entry partner, the tested form may be a part, canonical isoform) above

Turning to `Cc1c(F)cncc1-n1c([C@H](C)Nc2nc(N)nc(N)c2C#N)nc2cccc(Cl)c2c1=O` (atropisomer, axis not shown) [Compound 47, (S)-2,4-diamino-6-(1-(5-chloro-3-(5-fluoro-4-methylpyridin-3-yl)-4-oxo-3,4-dihydroquinazolin-2-yl)ethylamino)pyrimidine-5-carbonitrile], 0.5 nM corresponded to half-maximal inhibition in data set [1] (IC50). The half-maximal effective concentration (EC50) was under 1 nM in data set [2] (class symbol) and 0.4 nM in data set [2] (geometric mean). Moreover, the t1/2 entry in data set [3] (class symbol) was “***** (***** = >10 h)”; in data set [3] (Table 3) it was over 10 h.

As to `CC[C@H](Nc1nc(N)nc(N)c1C#N)c1nc2cccc(Cl)c2c(=O)n1-c1cnc(N)cc1C` (atropisomer, axis not shown) [Compound 92, (S)-2,4-diamino-6-((1-(3-(6-amino-4-methylpyridin-3-yl)-5-chloro-4-oxo-3,4-dihydroquinazolin-2-yl)propyl)amino)pyrimidine-5-carbonitrile], the IC50 was 0.8 nM in data set [1] and 1 nM in data set [4]. For the same molecule, the half-life at 2 μM in data set [5] was 4 h.

In the case of `Cc1cc(N)ncc1-n1c([C@H](C)Nc2nc(N)nc(N)c2C#N)nc2cccc(Cl)c2c1=O` (atropisomer, axis not shown) [Compound 94, (S)-2,4-diamino-6-((1-(3-(6-amino-4-methylpyridin-3-yl)-5-chloro-4-oxo-3,4-dihydroquinazolin-2-yl)ethyl)amino)pyrimidine-5-carbonitrile], the IC50 in data set [1] came to 0.5 nM; in data set [4], 1 nM. The half-life at 2 μM in data set [5] is 10 h.

Regarding `Cc1cc(N)ncc1-n1c([C@H](C)Nc2nc(N)nc(N)c2C#N)nc2c(Cl)ccc(Cl)c2c1=O` (atropisomer, axis not shown) [Compound 96, (S)-2,4-diamino-6-((1-(3-(6-amino-4-methylpyridin-3-yl)-5,8-dichloro-4-oxo-3,4-dihydroquinazolin-2-yl)ethyl)amino)pyrimidine-5-carbonitrile], the half-inhibitory concentration (IC50) turned out to be 1 nM in data set [1] and 3 nM in data set [4]. The half-life at 2 μM in data set [5] was 4 h.

For `C[C@H](Nc1nc(N)nc(N)c1C#N)c1nc2c(Cl)cc(F)cc2c(=O)n1-c1ccc(N)nc1` [Compound 82, (S)-2,4-diamino-6-((1-(3-(6-aminopyridin-3-yl)-8-chloro-6-fluoro-4-oxo-3,4-dihydroquinazolin-2-yl)ethyl)amino)pyrimidine-5-carbonitrile], the IC50 in data set [1] and in data set [4] was 5 nM each time. Also, the half-life at 2 μM in data set [5] was over 10 h.

On to `C[C@H](Nc1nc(N)nc(N)c1C#N)c1nc2c(Cl)ccc(Cl)c2c(=O)n1-c1ccc(N)nc1` [Compound 84, (S)-2,4-diamino-6-((1-(3-(6-aminopyridin-3-yl)-5,8-dichloro-4-oxo-3,4-dihydroquinazolin-2-yl)ethyl)amino)pyrimidine-5-carbonitrile], for which the values for the IC50 in data set [1] and in data set [4] were 0.5 nM and 1 nM, respectively. Also, in data set [5], the half-life at 2 μM was 10 h.

Consider `C[C@H](Nc1nc(N)nc(N)c1Cl)c1nc2cccc(Cl)c2c(=O)n1-c1ccc(N)nc1` [Compound 85, (S)-3-(6-aminopyridin-3-yl)-5-chloro-2-(1-((2,6-diamino-5-chloropyrimidin-4-yl)amino)ethyl)quinazolin-4(3H)-one], for which the 50% inhibitory concentration (IC50) came out at 3 nM in data set [1] and 9 nM in data set [4]. Besides, in data set [5], the half-life at 2 μM is over 10 h.

For the molecule `CC[C@H](Nc1nc(N)nc(N)c1C#N)c1nc2cccc(Cl)c2c(=O)n1-c1ccc(N)nc1` [Compound 87, (S)-2,4-diamino-6-((1-(3-(6-aminopyridin-3-yl)-5-chloro-4-oxo-3,4-dihydroquinazolin-2-yl)propyl)amino)pyrimidine-5-carbonitrile], the IC50 in data set [1] was 0.6 nM; in data set [4] it was 0.8 nM. Further, in data set [5], the half-life at 2 μM is over 10 h.

For the molecule `C[C@H](Nc1nc(N)nc(N)c1Cl)c1nc2c(F)ccc(Cl)c2c(=O)n1-c1ccc(N)nc1` [Compound 88, (S)-3-(6-aminopyridin-3-yl)-5-chloro-2-(1-((2,6-diamino-5-chloropyrimidin-4-yl)amino)ethyl)-8-fluoroquinazolin-4(3H)-one], the values for the IC50 in data set [1] and in data set [4] were 6 nM and 11 nM, respectively. For the same molecule, the half-life at 2 μM in data set [5] is over 10 h.

For the molecule `C[C@H](Nc1nc(N)nc(N)c1C#N)c1nc2cccc(Cl)c2c(=O)n1-c1ccc(N)nc1` [Compound 97, (S)-2,4-diamino-6-((1-(3-(6-aminopyridin-3-yl)-5-chloro-4-oxo-3,4-dihydroquinazolin-2-yl)ethyl)amino)pyrimidine-5-carbonitrile], the IC50 was 0.8 nM in data set [1] and 0.7 nM in data set [4]. The half-life at 2 μM in data set [5] was over 10 h.
